Data reported in publication PMC10518257 (Nature Cancer, 2023).
Values joined by “and” are separate entries in the source; they are usually repeats but may differ in a detail not shown here. Equal entries are not always repeated. Where two headings read alike, the source gives them in different places.

Key:
TT cells = test: Growth inhibition (alamarBlue, 96 h); format: cell-based, human; details: for raw viability signal (Source Data Fig. 3b-c): replicate sets
Ba/F3-CCDC6::RET = test: Growth inhibition assay in Ba/F3 cells (CellTiter-Glo, 72 h); format: cell-based
[1] = test system: Ba/F3 cells expressing KIF5B–RET^G810R; test: as above; format: cell-based; details: Ba/3-KIF5B-RET-G810R; replicate Sets 1-3
[2] = test system: Ba/F3 cells expressing KIF5B–RET^G810C; test: as above; format: cell-based; details: Ba/3-KIF5B-RET-G810C; replicate Sets 1-3
[3] = biological target: panel of 255 (vepafestinib) or 256 (all other inhibitors) recombinant kinases; test: Kinase selectivity profiling at a single concentration (Carna Biosciences); format: biochemical; details: 23 nM, panel of 255 recombinant kinases
[4] = biological target: T1, panel of 255 (vepafestinib) or 256 (all other inhibitors) recombinant kinases (Homo sapiens, UniProt P35916); test: as above; format: biochemical; details: 23 nM
T1 construct: purchased Carna Biosciences

[5] = biological target: T2, panel of 255 (vepafestinib) or 256 (all other inhibitors) recombinant kinases (Homo sapiens, UniProt P16234); test: as above; format: biochemical; details: 23 nM
T2 construct: purchased Carna Biosciences

TT cells (RET C634W) = test: Dose-response western blotting, EC50 for inhibition of protein phosphorylation; format: cell-based; details: Homo sapiens
[6] = test system: Ba/F3 cells expressing KIF5B–RET^WT; test: Growth inhibition assay in Ba/F3 cells (CellTiter-Glo, 72 h); format: cell-based
[7] = test system: Ba/F3 KIF5B–RET^G810R allograft tumors; test: Subcutaneous allograft efficacy study; format: in vivo, BALB/c nude mice; details: in mm³ (unit assumed);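 further: mean tumor volume per dosing group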
LUAD-0087AS2 cells = test: Growth inhibition (alamarBlue, 96 h); format: cell-based, human; details: for raw viability signal (Source Data Fig. 3b-c): LUAD-0087AS2, replicate sets
[8] = test system: HBECp53-RET cells (CCDC6-RET fusion); test: Growth inhibition (alamarBlue, 96 h); format: cell-based, human; details: for raw viability signal (Source Data Fig. 3b-c): HBEC-RET, replicate sets
ECLC5B cells = test: Growth inhibition (alamarBlue, 96 h); format: cell-based, human; details: ECLC5B, replicates
[9] = Homo sapiens, 96 h, read-out: IC50 for Inhibition of Growth (95% CI)

T1 sequence (P35916 25-1363): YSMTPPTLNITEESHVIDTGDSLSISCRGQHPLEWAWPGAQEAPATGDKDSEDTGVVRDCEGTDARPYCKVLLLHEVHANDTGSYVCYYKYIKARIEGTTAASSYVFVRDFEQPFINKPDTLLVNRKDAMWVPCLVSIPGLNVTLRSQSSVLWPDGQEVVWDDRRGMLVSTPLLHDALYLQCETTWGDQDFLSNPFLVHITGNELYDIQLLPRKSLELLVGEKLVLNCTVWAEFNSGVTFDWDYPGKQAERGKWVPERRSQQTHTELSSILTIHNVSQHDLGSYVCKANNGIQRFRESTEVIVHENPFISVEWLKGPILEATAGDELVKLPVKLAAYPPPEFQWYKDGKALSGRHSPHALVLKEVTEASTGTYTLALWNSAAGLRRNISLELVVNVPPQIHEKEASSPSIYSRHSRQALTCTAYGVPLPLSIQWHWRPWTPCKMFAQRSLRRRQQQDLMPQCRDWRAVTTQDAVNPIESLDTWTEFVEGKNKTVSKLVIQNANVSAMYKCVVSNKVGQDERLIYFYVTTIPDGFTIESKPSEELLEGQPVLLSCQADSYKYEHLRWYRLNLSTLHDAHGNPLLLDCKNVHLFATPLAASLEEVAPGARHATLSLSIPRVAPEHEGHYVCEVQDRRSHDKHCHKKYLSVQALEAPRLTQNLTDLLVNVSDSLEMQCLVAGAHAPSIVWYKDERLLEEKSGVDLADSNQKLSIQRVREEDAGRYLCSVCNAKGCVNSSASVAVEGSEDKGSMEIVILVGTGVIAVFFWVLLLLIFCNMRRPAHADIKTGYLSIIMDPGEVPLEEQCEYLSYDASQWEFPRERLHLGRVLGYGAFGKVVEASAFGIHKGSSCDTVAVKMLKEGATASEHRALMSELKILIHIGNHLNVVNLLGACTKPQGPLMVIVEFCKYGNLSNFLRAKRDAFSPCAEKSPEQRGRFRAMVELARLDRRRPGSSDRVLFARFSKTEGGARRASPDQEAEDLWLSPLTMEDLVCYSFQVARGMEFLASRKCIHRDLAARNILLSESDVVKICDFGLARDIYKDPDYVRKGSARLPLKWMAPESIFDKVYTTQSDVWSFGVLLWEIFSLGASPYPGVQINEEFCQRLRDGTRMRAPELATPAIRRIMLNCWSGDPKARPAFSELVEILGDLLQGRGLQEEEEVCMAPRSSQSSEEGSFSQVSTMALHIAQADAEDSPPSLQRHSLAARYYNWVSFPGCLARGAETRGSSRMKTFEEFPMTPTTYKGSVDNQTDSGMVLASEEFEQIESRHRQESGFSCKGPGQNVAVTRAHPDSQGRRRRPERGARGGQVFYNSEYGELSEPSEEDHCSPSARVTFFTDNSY
T2 sequence (P16234 24-1089): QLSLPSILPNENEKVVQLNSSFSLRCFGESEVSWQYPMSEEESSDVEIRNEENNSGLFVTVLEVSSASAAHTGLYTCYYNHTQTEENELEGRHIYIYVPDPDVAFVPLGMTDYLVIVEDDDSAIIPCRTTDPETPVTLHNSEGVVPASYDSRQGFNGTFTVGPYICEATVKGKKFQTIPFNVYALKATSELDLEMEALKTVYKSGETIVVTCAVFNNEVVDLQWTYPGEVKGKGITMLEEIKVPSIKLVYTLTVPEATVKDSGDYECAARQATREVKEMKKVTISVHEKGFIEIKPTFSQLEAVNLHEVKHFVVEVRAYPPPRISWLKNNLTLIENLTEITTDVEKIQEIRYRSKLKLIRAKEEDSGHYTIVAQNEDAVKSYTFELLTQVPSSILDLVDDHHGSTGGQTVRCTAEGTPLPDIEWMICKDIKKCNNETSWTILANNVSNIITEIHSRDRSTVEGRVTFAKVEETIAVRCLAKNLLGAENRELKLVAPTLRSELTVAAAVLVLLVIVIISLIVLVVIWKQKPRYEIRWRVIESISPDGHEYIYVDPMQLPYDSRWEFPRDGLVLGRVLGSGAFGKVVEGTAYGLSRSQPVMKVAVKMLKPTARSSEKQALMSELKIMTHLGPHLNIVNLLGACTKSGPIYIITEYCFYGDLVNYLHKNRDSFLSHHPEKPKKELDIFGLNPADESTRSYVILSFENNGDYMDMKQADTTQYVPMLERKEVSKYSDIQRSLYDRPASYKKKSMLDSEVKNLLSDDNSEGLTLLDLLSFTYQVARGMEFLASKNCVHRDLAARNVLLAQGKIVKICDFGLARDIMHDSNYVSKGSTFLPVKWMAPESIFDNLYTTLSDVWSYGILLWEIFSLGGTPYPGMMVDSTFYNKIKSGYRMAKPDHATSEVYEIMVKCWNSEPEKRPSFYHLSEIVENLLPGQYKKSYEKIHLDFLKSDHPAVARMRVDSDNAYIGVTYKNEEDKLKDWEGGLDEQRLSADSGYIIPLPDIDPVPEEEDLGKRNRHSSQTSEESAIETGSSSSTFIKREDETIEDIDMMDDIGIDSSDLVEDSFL

COCc1ccc(NC(=O)c2c(C#CCN3CCOCC3)n(C3(C)CC3)c3ncnc(N)c23)cc1 [Vepafestinib, 4-amino-N-[4-(methoxymethyl)phenyl]-7-(1-methylcyclopropyl)-6-[3-(morpholin-4-yl)prop-1-yn-1-yl]-7H-pyrrolo[2,3-d]pyrimidine-5-carboxamide]
raw viability signal (Source Data Fig. 3b-c) (TT cells; 0.01 nM): 22992.9 and 26706 and 26833.9 and 13728.7 and 29403.6 | raw viability signal (Source Data Fig. 3b-c) (TT cells; 0.1 nM): 22728 and 26400.4 and 33154.7 and 10987.6 and 26655.8 | raw viability signal (Source Data Fig. 3b-c) (TT cells; 1 nM): 22046.8 and 26424.3 and 31146.9 and 10280.3 and 23063 | raw viability signal (Source Data Fig. 3b-c) (TT cells; 10 nM): 18366.2 and 23539.3 and 23168.9 and 8667.42 and 19947.5 | raw viability signal (Source Data Fig. 3b-c) (TT cells; 100 nM): 10434.7 and 14002.8 and 12336.3 and 4688.9 and 15375.8 | raw viability signal (Source Data Fig. 3b-c) (TT cells; 1000 nM): 10759 and 11509.2 and 9437.03 and 4745.5 and 14900.8 | raw viability signal (Source Data Fig. 3b-c) (TT cells; 10000 nM): 11538.8 and 12388.7 and 14343.9 and 2691.86 and 17063 | IC50 (TT cells; [9]): 24 nM | GI50 (Ba/F3-CCDC6::RET; BaF3/CCDC6-RET, 72 h, read-out: GI50 value (Mean ± SD), Ba/F3-CCDC6::RET, CellTiter-Glo, 72 h): 22 ± 9.3 nM | GI50 (Ba/F3-CCDC6::RET; read-out: GI50 values, Ba/F3-CCDC6::RET, individual sets (replicate experiments)): 14 nM and 32.2 nM and 19.9 nM | GI50 [1]: 24.2 nM and 46.7 nM | GI50 [2]: 14.5 nM | kinases inhibited by >50% [3]: one and RET was the only kinase inhibited by >50% | % Inhibiton FLT4 [4]: 46.9% | % Inhibiton PDGFRα [5]: 12.4% | EC50 (TT cells (RET C634W); read-out: EC50 for Inhibition of Protein Phosphorylation (95% CI), AKT S473, 2 h, densitometry): 2.4 nM | EC50 (TT cells (RET C634W); read-out: EC50 for Inhibition of Protein Phosphorylation (95% CI), ERK1/2 T202/Y204, 2 h, densitometry): 0.3 nM | EC50 (TT cells (RET C634W); read-out: EC50 for Inhibition of Protein Phosphorylation (95% CI), MEK1/2 S217/S221, 2 h, densitometry): 2.1 nM | EC50 (TT cells (RET C634W); read-out: EC50 for Inhibition of Protein Phosphorylation (95% CI), P70 RSK T421/S424, 2 h, densitometry): 1.1 nM | EC50 (TT cells (RET C634W); read-out: EC50 for Inhibition of Protein Phosphorylation (95% CI), RET Y905, 2 h, densitometry): 0.3 nM | EC50 (TT cells (RET C634W); read-out: EC50 for Inhibition of Protein Phosphorylation (95% CI), S6RP S235/S236, 2 h, densitometry): 0.7 nM | GI50 ([6]; Ba/3-KIF5B-RET, replicate sets): 8.96 nM and 6.78 nM | GI50 ([6]; Mus musculus, BaF3, 72 h, read-out: GI50 value (Mean ± SD), Ba/F3-KIF5B::RET, CellTiter-Glo, 72 h): 8.27 ± 1.29 nM | GI50 ([6]; Mus musculus, BaF3, Ba/3-KIF5B-RET, replicate sets): 9.06 nM | Tumor Volume Mean ([7]; Fig. 7c Ba/F3-KIF5B::RET G810R, vepafestinib 10 mg/kg BID, day 1): 153.82 | Tumor Volume Mean ([7]; Fig. 7c Ba/F3-KIF5B::RET G810R, vepafestinib 10 mg/kg BID, day 4): 151.29 | Tumor Volume Mean ([7]; Fig. 7c Ba/F3-KIF5B::RET G810R, vepafestinib 10 mg/kg BID, day 8): 262.19 | Tumor Volume Mean ([7]; Fig. 7c Ba/F3-KIF5B::RET G810R, vepafestinib 10 mg/kg BID, day 11): 374.99 | Tumor Volume Mean ([7]; Fig. 7c Ba/F3-KIF5B::RET G810R, vepafestinib 10 mg/kg BID, day 15): 551.42 | Tumor Volume Mean ([7]; Fig. 7d Ba/F3-KIF5B::RET G810R, vepafestinib 50 mg/kg BID, day 1): 158.4 | Tumor Volume Mean ([7]; Fig. 7d Ba/F3-KIF5B::RET G810R, vepafestinib 50 mg/kg BID, day 4): 122.1 | Tumor Volume Mean ([7]; Fig. 7d Ba/F3-KIF5B::RET G810R, vepafestinib 50 mg/kg BID, day 8): 133.3 | Tumor Volume Mean ([7]; Fig. 7d Ba/F3-KIF5B::RET G810R, vepafestinib 50 mg/kg BID, day 11): 139.6 | Tumor Volume Mean ([7]; Fig. 7d Ba/F3-KIF5B::RET G810R, vepafestinib 50 mg/kg BID, day 15): 173.1 | IC50 (LUAD-0087AS2 cells; [9]): 52 nM | raw viability signal (Source Data Fig. 3b-c) (LUAD-0087AS2 cells; 0.01 nM): 11228 and 14615.9 and 14016.7 and 14250.8 | raw viability signal (Source Data Fig. 3b-c) (LUAD-0087AS2 cells; 0.1 nM): 11523.4 and 15236.1 and 13636.1 and 15169.5 | raw viability signal (Source Data Fig. 3b-c) (LUAD-0087AS2 cells; 1 nM): 9899.07 and 15123.8 and 13931.5 and 14165.7 | raw viability signal (Source Data Fig. 3b-c) (LUAD-0087AS2 cells; 10 nM): 10547.8 and 8202.29 and 13996.8 and 13713.3 | raw viability signal (Source Data Fig. 3b-c) (LUAD-0087AS2 cells; 100 nM): 5765.45 and 5334.21 and 3421.1 and 4734.04 | raw viability signal (Source Data Fig. 3b-c) (LUAD-0087AS2 cells; 1000 nM): 2843.25 and 5162.03 and 1552.19 and 1343.68 | raw viability signal (Source Data Fig. 3b-c) (LUAD-0087AS2 cells; 10000 nM): 1385.86 and 3882.23 and 977.192 and 943.954 | raw viability signal (Source Data Fig. 3b-c) ([8]; 0.01 nM): 18957.1 and 8244.84 and 10678.9 and 16541.7 | raw viability signal (Source Data Fig. 3b-c) ([8]; 0.1 nM): 17482 and 10966 and 10873.4 and 16651.3 | raw viability signal (Source Data Fig. 3b-c) ([8]; 1 nM): 17298.8 and 10767.5 and 11130.6 and 16468.7 | raw viability signal (Source Data Fig. 3b-c) ([8]; 10 nM): 5536.96 and 10230.4 and 9156.41 and 16208.5 | raw viability signal (Source Data Fig. 3b-c) ([8]; 100 nM): 4544.29 and 6087.71 and 3084.29 and 6640.5 | raw viability signal (Source Data Fig. 3b-c) ([8]; 1000 nM): 2966.02 and 1973.98 and 3130.94 and 5863.55 | raw viability signal (Source Data Fig. 3b-c) ([8]; 10000 nM): 3124.48 and 1006.63 and 1869.57 and 4627.96 | IC50 ([8]; Homo sapiens, 96 h, read-out: IC50 for Inhibition of Growth (95% CI), HBECp53-RET, alamarBlue, 96 h): 65 nM | raw viability signal (Source Data Fig. 3b-c) (ECLC5B cells; 0.01 nM): 9826.46 and 7916.25 and 19010.8 | raw viability signal (Source Data Fig. 3b-c) (ECLC5B cells; 0.1 nM): 10351 and 8612.52 and 20662.3 | raw viability signal (Source Data Fig. 3b-c) (ECLC5B cells; 1 nM): 10751.4 and 8385.29 and 18478.3 | raw viability signal (Source Data Fig. 3b-c) (ECLC5B cells; 10 nM): 4019.62 and 1873.82 and 8615.92 | raw viability signal (Source Data Fig. 3b-c) (ECLC5B cells; 100 nM): 3307.08 and 1329.05 and 4450.27 | raw viability signal (Source Data Fig. 3b-c) (ECLC5B cells; 1000 nM): 2927.89 and 1305.13 and 4874.13
